From patent US20190308994A1, “Topical Pharmaceutical Formulations For Treating Inflammatory-Related Conditions” (Anacor Pharmaceuticals, Inc., priority 2015, published 2019)
Values after ≈ are worked out from the molar mass of the structure shown. Read-outs that look alike come from different tables or passages of the source.

Assays:
[1] = Solubility of crisaborole in solvents by visual assessment; type: physicochemical
Experimental: (§1) One of the key aspects encountered in reformulating crisaborole was that the active agent be fully dissolved within its solvent. A selection criterion of greater than 10% w/w crisaborole solubility was used to select solvents capable of carrying at least 1% crisaborole in a final drug product formulation, assuming the drug product contained 10% solvent. The solubility of crisaborole in ten solvents was evaluated to identify those with crisaborole solubility greater than 10% w/w by visual assessment. The equilibrium solubility of the best solvents was subsequently verified by HPLC.

[2] = Equilibrium solubility of crisaborole in solvents by HPLC; type: physicochemical; settings: thermodynamic from solid, read-out: Solubity by HPLC
Experimental: as §1

Visual Solubity ([1]; in Diisopropyl Adipate): 7.7% w/w
Visual Solubity ([1]; in Ethylhexyl Hydroxystearate): 1.6% w/w
Visual Solubity ([1]; in Hexylene Glycol, NF): 25.9% w/w
Visual Solubity ([1]; in Isopropyl Myristate, NF): 0.6% w/w
Visual Solubity ([1]; in Oleic Acid, NF): <0.1% w/w
Visual Solubity ([1]; in Oleyl Alcohol, NF): 2.3% w/w
Visual Solubity ([1]; in Polyethylene Glycol (PEG) 400, USP): 15.0% w/w
Visual Solubity ([1]; in Propylene Carbonate, NF): 9.9% w/w
Visual Solubity ([1]; in Propylene Glycol, USP): 24.0% w/w
Visual Solubity ([1]; in Transcutol P, NF): 28.6% w/w
solubility ([2]; oil or lipid, in Ethylhexyl Hydroxystearate): 21 mg/mL (≈ 83.6 mM)
solubility ([2]; oil or lipid, in Oleyl Alcohol, NF): 33 mg/mL (≈ 131 mM)
solubility ([2]; organic solvent or mixture, in Hexylene Glycol, NF): 356 mg/mL (≈ 1420 mM)
solubility ([2]; organic solvent or mixture, in Polyethylene Glycol (PEG) 400, USP): 164 mg/mL (≈ 653 mM)
solubility ([2]; organic solvent or mixture, in Propylene Carbonate, NF): 96 mg/mL (≈ 382 mM)
solubility ([2]; organic solvent or mixture, in Propylene Glycol, USP): 274 mg/mL (≈ 1090 mM)
solubility ([2]; organic solvent or mixture, in Transcutol P, NF): 21.2 mg/mL (≈ 84.4 mM)
Compound: N#Cc1ccc(Oc2ccc3c(c2)COB3O)cc1 [Crisaborole Form II, 5-(4-cyanophenoxy)-1,3-dihydro-1-hydroxy-2,1-benzoxaborole]
